# Experimental data taken from publication PMC6934184, “Selective DNA-PKcs inhibition extends the therapeutic index of localized radiotherapy and chemotherapy” (The Journal of Clinical Investigation, 2019).
# Target: T1, AKT3 (PKB gamma) (Homo sapiens, UniProt Q9Y243)
# T1 construct: purchased Thermo Fisher Scientific (Life Technologies) SelectScreen
# Assay: SelectScreen Z'LYTE
# Assay type: biochemical
# In short: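 NU5455 was profiled across the SelectScreen Broad panel of kinase activity and binding assays. Z'LYTE reactions such as CSF1R ran at apparent Km ATP, while the Adapta CAMK1 assay used ATP listed as 10. Values are given as percent.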
# T1 sequence (Q9Y243 whole entry): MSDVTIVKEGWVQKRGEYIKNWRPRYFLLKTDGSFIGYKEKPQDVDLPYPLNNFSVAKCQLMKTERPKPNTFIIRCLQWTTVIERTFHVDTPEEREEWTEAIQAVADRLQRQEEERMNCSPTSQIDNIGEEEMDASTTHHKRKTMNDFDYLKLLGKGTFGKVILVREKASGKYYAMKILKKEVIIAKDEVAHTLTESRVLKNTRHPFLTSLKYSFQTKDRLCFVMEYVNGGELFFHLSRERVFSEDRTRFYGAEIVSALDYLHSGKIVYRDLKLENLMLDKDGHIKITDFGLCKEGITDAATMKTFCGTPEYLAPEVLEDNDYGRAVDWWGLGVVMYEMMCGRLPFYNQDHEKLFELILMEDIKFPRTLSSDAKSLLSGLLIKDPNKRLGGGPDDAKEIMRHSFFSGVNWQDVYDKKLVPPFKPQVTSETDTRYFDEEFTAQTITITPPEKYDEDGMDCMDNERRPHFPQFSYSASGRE
compound,measurement,value
CN(C(=O)CN1CCOCC1)c1ccc2sc3c(-c4cccc5c(=O)cc(N6CC7CCC(C6)O7)oc45)cccc3c2c1 [NU5455],inhibition at 1 µM,-0.5%
